The values that follow come from US20240301408A1, “MICRORNA 195 COMPOSITIONS AND METHODS FOR TREATING COGNITIVE IMPAIRMENT” (UNITED STATES GOVERNMENT AS REPRESENTED BY THE DEPARTMENT …, priority 2021, published 2024).

Series [1] concerns synaptojanin 1 (synj1). Kind of series: synj1 expression in cultured mouse neurons after AAV2 miRNA over-expression (western blot, qPCR). It is filed as cell-based. The protocol: (§1) Mouse Neuronal and human iPSC culture. Primary cortical neurons were cultured (Zhu L et al., Proc Natl Acad Sci USA 2015, and Zhu L et al., J Biol Chem 2013) before being fixed and stained for confocal microscopy analysis (Zeiss LSM) (Berg I et al., Nat Protoc 2010). In some conditions, bovine serum albumin (BSA) or receptor-associated protein (RAP) was included in the cultured media (N=3/group). Alternatively, cultured neurons were transfected with adeno-associated virus 2 (AAV2)-containing miR-195-5p or miR-374 or scramble controls for 5 days before subjected to analysis. The ApoE4^+/+ and ApoE3^+/+ iPSCs were differentiated into neural progenitor cells (NPCs) by dual SMAD inhibition followed by neural rosette selection and forebrain-specific patterning by 20 ng/ml FGF2 exposure (Bowles K R et al., PloS one 2019, and Tcw J et al., Stem cell reports 2017). These NPCs were purified by MACS for CD271^−/CD133^+ (Bowles K R et al., PloS one 2019) and differentiated to cortical neurons (Bardy C et al., Proc Natl Acad Sci USA 2015, and Paquet D et al., Nature 2016) and a homogeneous population of astrocytes (Tcw J et al., Stem cell reports 2017, and Shaltouki A et al., Stem Cells 2013) before subjected to viral transfection and confocal microscopy analysis. Alternatively, mouse cortical neurons derived from ApoE4^+/+ and ApoE3^+/+ KI mice with synj1^+/+ or synj1^−/− genotypes were co-cultured with ApoE4^+/+ and ApoE3^+/+ iPSC-derived pure astrocytes. In some experiments, cultured neurons were transfected with AAV2-containing miR-195-5p, scramble controls or miR195 inhibitors that specifically prevent miR-195-5p binding to its target mRNA before co-culturing with iPSC-derived astrocytes. Cultured iPSC-derived neurons and astrocytes were then incubated with lysotracker red for various time periods before fixation and double-stained for pTau and a nuclear marker DAPI (blue) for confocal microscopy analysis (Zeiss). N=4-5/condition.
Brain and neuronal sample preparation and biochemical analysis. Snap-frozen mouse hemi-brains or cultured neurons were harvested in lysis buffer (Lane R F et al., The Journal of neuroscience 2010) and processed via step-wise solubilization (Lane R F et al., The Journal of neuroscience 2010, and Kawarabayashi T et al. The Journal of neuroscience 2001) followed by SDS-PAGE to determine levels of synj1, dyn1, holoAPP, and CTFs. Levels of Aβ42, Aβ40, pTau, Tau and ApoE were determined using high-sensitive ELISA kits. Some tissue was used for miRNA and RNA extraction followed by qPCR and RNA-seq analysis. Some animals underwent perfusion followed by brain tissue section for immunohistochemical staining of amyloid plaque, synj1 and pTau.
(§2) Statistical analysis. The sample sizes of each experiment were chosen based on power calculations derived from previous similar studies which allowed the determination of group sizes needed to achieve statistically significant results. […] Levels of miR-195-5p and miR-374 were normalized to U6 and RNU6B (internal controls) while synj1 mRNA normalized to GAPDH and 18s, and then expressed as Log2fold of changes when compared to controls. Levels of synj1, dyn1, pTau, Tau, and holoAPP were normalized to β-actin levels and expressed as a percentage of the control. Absolute Aβ42, Aβ40, pTau, Tau, and ApoE concentrations were quantitatively determined by ELISA and expressed as a percentage of the control. […] Pearson correlation coefficients were calculated to determine the linear relationship between the two variables. […]
A general note: In western blotting, separated proteins are transferred to a membrane and probed.

Series [2] relates to holo-APP or BACE-1. Nature of the series: brain holo-APP and BACE-1 levels in EFAD mice after miR-195-5p over-expression. It is filed as in vivo. Conditions: EFAD mouse brains. The protocol: Stereotaxic injection and behavior studies. Eight to nine weeks old male and female ApoE3^+/+ and ApoE4^+/+ KI mice without 5×FAD background (N=19-23/group), or with 5×FAD background (N=15-17/group) were placed in the stereotaxic apparatus with AAV2 or scramble virus administered into the dorsal CA1 regions of bilateral hippocampal brain regions using pressure injection (Labonte B et al., Nat Med 2017, and Passini M A et al., The Journal of neuroscience 2006). Injection volumes (0.5-2.0 μl) were delivered over 10 min to avoid tissue damage. […]
(§3) Brain and neuronal sample preparation and biochemical analysis. […] Levels of Aβ42, Aβ40, pTau, Tau and ApoE were determined using high-sensitive ELISA kits. […]
as §2, with “analysis.” for “analysis. The sample sizes of each experiment were chosen based on power calculations derived from previous similar studies which allowed the determination of group sizes needed to achieve statistically significant results.”

Series [3] has as its system lysosomes of synj1+/+ and synj1-/- neurons. Kind of series: lysosome size in mouse synj1+/+ and synj1-/- neurons co-cultured with ApoE4+/+ iPSC-derived astrocytes. The class given is cell-based. Here is the method: as §1, with “Alternatively, mouse cortical neurons derived from ApoE4^+/+ and ApoE3^+/+ KI mice with synj1^+/+ or synj1^−/− genotypes were co-cultured with ApoE4^+/+ and ApoE3^+/+ iPSC-derived pure astrocytes. In some experiments, cultured neurons were transfected with AAV2-containing miR-195-5p, scramble controls or miR195 inhibitors that specifically prevent miR-195-5p binding to its target mRNA before co-culturing with iPSC-derived astrocytes. Cultured iPSC-derived neurons and astrocytes were then incubated with lysotracker red for various time periods before fixation and double-stained for pTau and a nuclear marker DAPI (blue) for confocal microscopy analysis (Zeiss). N=4-5/condition.” left out

For series [4], the system named is pTau. Kind of series: pTau levels in iPSC-derived brain cell culture (AT8 staining, ELISA). It is filed as cell-based, human. The following applies: iPSC-derived neuron and astrocyte co-culture. Here is the method:
Mouse Neuronal and human iPSC culture. Primary cortical neurons were cultured (Zhu L et al., Proc Natl Acad Sci USA 2015, and Zhu L et al., J Biol Chem 2013) before being fixed and stained for confocal microscopy analysis (Zeiss LSM) (Berg I et al., Nat Protoc 2010). In some conditions, bovine serum albumin (BSA) or receptor-associated protein (RAP) was included in the cultured media (N=3/group). Alternatively, cultured neurons were transfected with adeno-associated virus 2 (AAV2)-containing miR-195-5p or miR-374 or scramble controls for 5 days before subjected to analysis. The ApoE4^+/+ and ApoE3^+/+ iPSCs were differentiated into neural progenitor cells (NPCs) by dual SMAD inhibition followed by neural rosette selection and forebrain-specific patterning by 20 ng/ml FGF2 exposure (Bowles K R et al., PloS one 2019, and Tcw J et al., Stem cell reports 2017). […]
as §3
Background: In an ELISA, binding on a coated surface is turned into a signal by an enzyme label.

[5] abbreviates: ApoE3+/+ neurons with miR-195 over-expression.
[6] abbreviates: ApoE4+/+ neurons with miR-195 over-expression.

As to “UAGCAGCACAGAAAUAUUGGC (chemistry not given here) [miR-195-5p, over-expressed via AAV2-containing miR-195-5p from ABM Inc]”, the entries for the “synj1 mRNA levels” value in series [1] (setting [5]) and in series [1] (setting [6]) were −1.084±0.035 log2FC and −7.751±0.043 log2FC, respectively. In addition, the synj1 protein levels in series [1] (setting [5]) is reported as 70.9±21.2 % of controls; in series [1] (setting [6]), 48.0±9.84 % of controls; in series [1] (ApoE-/- hippocampal neurons in presence of ApoE4-CM, miRNA over-expression, N=4/group) it was 62.87±4.48 % of controls. For the same sequence, in series [2], the “holo-APP or BACE-1 levels” value is reported as “no significant changes”. Also, the size of lysosomes in series [3] (synj1+/+ neurons, control 101.5 μm^2) was determined as 75.8 μm^2; in series [3] (synj1-/- neurons, control 77.0 μm^2), 69.7 μm^2. Moreover, in series [4], the “pTau levels (fluorescent staining and ELISA)” value is reported as “reduced”.
